Measurements from patent US8575091B1, “Amylin analogues and pharmaceutical compositions thereof” (Novo Nordisk A/S, priority 2012, dated 2013).
Numbered stars: 1 amine (or outer) side, 2 acyl side, 3 side chain; on linkers, the order of the positions; unused ones are H or OH. Bridge positions count the residues as written; N and C are the ends. Side chains are listed from the residue outwards. Peptide text beside a SMILES is read from it. * marks the point of attachment. C20 diacid = O=C(O)CCCCCCCCCCCCCCCCCCC(=O)*; γGlu = O=C(O)[C@H](CCC(=O)[*:2])N[*:1]

Biological target: T1, human amylin receptor (amylin 3(a) receptor: human calcitonin receptor + RAMP-3) (Homo sapiens, UniProt O60896+P30988)
T1 construct: expressed in transfected cells
T1 sequence (P30988 25-474): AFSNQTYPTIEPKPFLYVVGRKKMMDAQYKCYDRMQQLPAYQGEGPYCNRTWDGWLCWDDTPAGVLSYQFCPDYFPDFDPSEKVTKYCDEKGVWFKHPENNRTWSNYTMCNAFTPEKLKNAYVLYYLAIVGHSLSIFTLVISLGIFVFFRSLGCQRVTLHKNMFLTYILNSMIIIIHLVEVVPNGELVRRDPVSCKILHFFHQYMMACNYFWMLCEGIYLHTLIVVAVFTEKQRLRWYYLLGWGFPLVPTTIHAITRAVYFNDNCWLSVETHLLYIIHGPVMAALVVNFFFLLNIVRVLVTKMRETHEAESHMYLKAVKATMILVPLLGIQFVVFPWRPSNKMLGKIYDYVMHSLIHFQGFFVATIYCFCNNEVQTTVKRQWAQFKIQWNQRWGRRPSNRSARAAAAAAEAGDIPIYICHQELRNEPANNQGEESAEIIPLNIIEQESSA
T1 sequence (O60896 24-148 partner): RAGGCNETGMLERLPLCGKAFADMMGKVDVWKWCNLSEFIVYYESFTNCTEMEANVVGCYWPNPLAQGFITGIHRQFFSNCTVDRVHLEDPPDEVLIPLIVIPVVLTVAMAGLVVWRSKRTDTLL
Assay: Assay (II)a functional assay, human amylin receptor (CRE luciferase, BHK cells)
Format: cell-based

[1] = Table 6, human functional selectivity (hCTR EC50 / hAmylin-R EC50)
[2] = Table 6a, human functional selectivity (hCTR EC50 / hAmylin-R EC50), at least 5
[3] = Table 6j, hCTR funct. EC50 / hAmylin-R funct. EC50
[4] = Table 6k, hCTR funct. EC50 / hAmylin-R funct. EC50

Compound | Ratio hCT/hAmylin funct. [1] | Ratio hCT/hAmylin funct. [2] | Ratio hCT/hAmylin funct. (hCTR funct. EC50 divided by hAmylin-R funct. EC50) | Ratio hCT/hAmylin funct. (Table 6i, hCTR funct. EC50 / hAmylin-R funct. EC50) | Ratio hCT/hAmylin funct. [3] | Ratio hCT/hAmylin funct. [4]
CC[C@H](C)[C@H](NC(=O)[C@H](C)NC(=O)CNC(=O)[C@H](Cc1ccccc1)NC(=O)[C@H](CC(N)=O)NC(=O)[C@@H]1CCCN1C(=O)[C@H](CO)NC(=O)[C@H](CO)NC(=O)[C@H](Cc1c[nH]cn1)NC(=O)[C@H](CCCNC(=N)N)NC(=O)[C@H](CC(C)C)NC(=O)[C@H](Cc1ccccc1)NC(=O)[C@H](CCC(=O)O)NC(=O)[C@H](C)NC(=O)[C@H](CC(C)C)NC(=O)[C@H](CCCNC(=N)N)NC(=O)[C@H](CCC(N)=O)NC(=O)[C@@H](NC(=O)[C@H](C)NC(=O)[C@@H]1CSSC[C@H](NC(=O)[C@H](CCCCN)NC(=O)CC[C@H](NC(=O)CCCCCCCCCCCCCCCCCCC(=O)O)C(=O)O)C(=O)N[C@@H](CC(N)=O)C(=O)N[C@@H]([C@@H](C)O)C(=O)N[C@@H](C)C(=O)N[C@@H]([C@@H](C)O)C(=O)N1)[C@@H](C)O)C(=O)N1CCC[C@H]1C(=O)N[C@@H](CO)C(=O)N[C@@H](CO)C(=O)N[C@H](C(=O)N[C@@H](CC(N)=O)C(=O)N[C@H](C(=O)NCC(=O)N[C@@H](Cc1c[nH]cn1)C(=O)N[C@@H](CC(N)=O)C(=O)N[C@H](C(=O)N[C@@H](Cc1ccc(O)cc1)C(N)=O)[C@@H](C)O)C(C)C)[C@@H](C)O [Example 17] ({C20 diacid-γGlu}-KCNTATCATQRLAEFLRHSSPNFGAIPSSTNVGHNTY-NH2; disulfide 2-7) | 8.8 | 8.8 |  | 8.8 | 8.8 | 8.8
CC[C@H](C)[C@H](NC(=O)[C@H](C)NC(=O)CNC(=O)[C@H](Cc1ccccc1)NC(=O)[C@H](CC(N)=O)NC(=O)[C@@H]1CCCN1C(=O)[C@H](CO)NC(=O)[C@H](CO)NC(=O)[C@H](Cc1c[nH]cn1)NC(=O)[C@H](CCCNC(=N)N)NC(=O)[C@H](CC(C)C)NC(=O)[C@H](Cc1ccccc1)NC(=O)[C@H](CC(N)=O)NC(=O)[C@H](C)NC(=O)[C@H](CC(C)C)NC(=O)[C@H](CCCNC(=N)N)NC(=O)[C@H](CCC(N)=O)NC(=O)[C@@H](NC(=O)[C@H](C)NC(=O)[C@@H]1CSSC[C@H](NC(=O)[C@H](CCCCN)NC(=O)CC[C@H](NC(=O)CCCCCCCCCCCCCCCCCCC(=O)O)C(=O)O)C(=O)N[C@@H](CC(N)=O)C(=O)N[C@@H]([C@@H](C)O)C(=O)N[C@@H](C)C(=O)N[C@@H]([C@@H](C)O)C(=O)N1)[C@@H](C)O)C(=O)N1CCC[C@H]1C(=O)N[C@@H](CO)C(=O)N[C@@H](CO)C(=O)N[C@H](C(=O)N1CCC[C@H]1C(=O)N[C@H](C(=O)NCC(=O)N[C@@H](CO)C(=O)N[C@@H](CCC(=O)O)C(=O)N[C@H](C(=O)N[C@@H](Cc1ccc(O)cc1)C(N)=O)[C@@H](C)O)C(C)C)[C@@H](C)O [Example 28] ({C20 diacid-γGlu}-KCNTATCATQRLANFLRHSSPNFGAIPSSTPVGSETY-NH2; disulfide 2-7) | 9.2 | 9.2 |  |  | 9.2 | 9.2
CC[C@H](C)[C@H](NC(=O)[C@H](C)NC(=O)CNC(=O)[C@H](Cc1ccccc1)NC(=O)[C@H](CC(N)=O)NC(=O)[C@@H]1CCCN1C(=O)[C@H](CO)NC(=O)[C@H](CO)NC(=O)[C@H](Cc1c[nH]cn1)NC(=O)[C@H](CCCNC(=N)N)NC(=O)[C@H](CC(C)C)NC(=O)[C@H](Cc1ccccc1)NC(=O)[C@H](CC(N)=O)NC(=O)[C@H](C)NC(=O)[C@H](CC(C)C)NC(=O)[C@H](CCCNC(=N)N)NC(=O)[C@H](CCC(N)=O)NC(=O)[C@@H](NC(=O)[C@H](C)NC(=O)[C@@H]1CSSC[C@H](NC(=O)[C@@H](N)CCCCNC(=O)COCCOCCNC(=O)CCCCCCCCCCCCCCCCCCC(=O)O)C(=O)N[C@@H](CC(N)=O)C(=O)N[C@@H]([C@@H](C)O)C(=O)N[C@@H](C)C(=O)N[C@@H]([C@@H](C)O)C(=O)N1)[C@@H](C)O)C(=O)N1CCC[C@H]1C(=O)N[C@@H](CO)C(=O)N[C@@H](CO)C(=O)N[C@H](C(=O)N[C@@H](CC(N)=O)C(=O)N[C@H](C(=O)NCC(=O)N[C@@H](CO)C(=O)N[C@@H](CC(N)=O)C(=O)N[C@H](C(=O)N[C@@H](Cc1ccc(O)cc1)C(N)=O)[C@@H](C)O)C(C)C)[C@@H](C)O [Example 43] | 6.5 | 6.5 |  |  | 6.5 | 6.5

The next lines start with the values.

Ratio hCT/hAmylin funct. [1] | Ratio hCT/hAmylin funct. [2] | Ratio hCT/hAmylin funct. (hCTR funct. EC50 divided by hAmylin-R funct. EC50) | Ratio hCT/hAmylin funct. (Table 6i, hCTR funct. EC50 / hAmylin-R funct. EC50) | Ratio hCT/hAmylin funct. [3] | Ratio hCT/hAmylin funct. [4] | Compound
12.0 | 12.0 | 12.0 |  |  |  | CC(C)C[C@H](NC(=O)[C@H](CCCNC(=N)N)NC(=O)[C@H](CCC(N)=O)NC(=O)[C@@H](NC(=O)[C@H](C)NC(=O)[C@@H]1CSSC[C@H](NC(=O)[C@@H](N)CCCCNC(=O)CC[C@H](NC(=O)CC[C@H](NC(=O)CCCCCCCCCCCCCCCCCCC(=O)O)C(=O)O)C(=O)O)C(=O)N[C@@H](CC(N)=O)C(=O)N[C@@H]([C@@H](C)O)C(=O)N[C@@H](C)C(=O)N[C@@H]([C@@H](C)O)C(=O)N1)[C@@H](C)O)C(=O)N[C@@H](C)C(=O)N[C@@H](CC(=O)O)C(=O)N[C@@H](Cc1ccccc1)C(=O)N[C@@H](CC(C)C)C(=O)N[C@@H](CCCNC(=N)N)C(=O)N[C@@H](Cc1c[nH]cn1)C(=O)N[C@@H](CO)C(=O)N[C@@H](CO)C(=O)N1CCC[C@H]1C(=O)N[C@@H](CC(N)=O)C(=O)N[C@@H](Cc1ccccc1)C(=O)NCC(=O)N[C@@H](C)C(=O)N1CCC[C@H]1C(=O)N[C@@H](CC(C)C)C(=O)N[C@@H](CO)C(=O)N[C@@H](CO)C(=O)N[C@H](C(=O)N[C@@H](CC(N)=O)C(=O)N[C@H](C(=O)NCC(=O)N[C@@H](CO)C(=O)N[C@@H](CC(=O)O)C(=O)N[C@H](C(=O)N[C@@H](Cc1ccc(O)cc1)C(N)=O)[C@@H](C)O)C(C)C)[C@@H](C)O [Example 1] (H-K([γGlu-γGlu-C20 diacid])CNTATCATQRLADFLRHSSPNFGAPLSSTNVGSDTY-NH2; disulfide 2-7; N-terminus assumed)
15.0 | 15.0 |  |  | 15.0 | 15.0 | CC[C@H](C)[C@H](NC(=O)[C@H](C)NC(=O)CNC(=O)[C@H](Cc1ccccc1)NC(=O)[C@H](CC(N)=O)NC(=O)[C@@H]1CCCN1C(=O)[C@H](CO)NC(=O)[C@H](CO)NC(=O)[C@H](Cc1c[nH]cn1)NC(=O)[C@H](CCCNC(=N)N)NC(=O)[C@H](CC(C)C)NC(=O)[C@H](Cc1ccccc1)NC(=O)[C@H](CC(N)=O)NC(=O)[C@H](C)NC(=O)[C@H](CC(C)C)NC(=O)[C@H](CCCNC(=N)N)NC(=O)[C@H](CCC(N)=O)NC(=O)[C@@H](NC(=O)[C@H](C)NC(=O)[C@@H]1CSSC[C@H](NC(=O)[C@@H](N)CCCCNC(=O)CC[C@H](NC(=O)CCCCCCCCCCCCCCCCCCC(=O)O)C(=O)O)C(=O)N[C@@H](CC(N)=O)C(=O)N[C@@H]([C@@H](C)O)C(=O)N[C@@H](C)C(=O)N[C@@H]([C@@H](C)O)C(=O)N1)[C@@H](C)O)C(=O)N1CCC[C@H]1C(=O)N[C@@H](CO)C(=O)N[C@@H](CO)C(=O)N[C@H](C(=O)N[C@@H](CC(N)=O)C(=O)N[C@H](C(=O)NCC(=O)N[C@@H](CO)C(=O)N[C@@H](CCCCN)C(=O)N[C@H](C(=O)N[C@@H](Cc1ccc(O)cc1)C(N)=O)[C@@H](C)O)C(C)C)[C@@H](C)O [Example 35] (H-K([γGlu-C20 diacid])CNTATCATQRLANFLRHSSPNFGAIPSSTNVGSKTY-NH2; disulfide 2-7; N-terminus assumed)
17.0 | 17.0 |  |  | 17.0 | 17.0 | CC[C@H](C)[C@H](NC(=O)[C@H](C)NC(=O)CNC(=O)[C@H](Cc1ccccc1)NC(=O)[C@H](CC(N)=O)NC(=O)[C@@H]1CCCN1C(=O)[C@H](CO)NC(=O)[C@H](CO)NC(=O)[C@H](Cc1c[nH]cn1)NC(=O)[C@H](CCCNC(=N)N)NC(=O)[C@H](CC(C)C)NC(=O)[C@H](Cc1ccccc1)NC(=O)[C@H](CC(N)=O)NC(=O)[C@H](C)NC(=O)[C@H](CC(C)C)NC(=O)[C@H](CCCNC(=N)N)NC(=O)[C@H](CCC(N)=O)NC(=O)[C@@H](NC(=O)[C@H](C)NC(=O)[C@@H]1CSSC[C@H](NC(=O)[C@@H](N)CCCCNC(=O)CC[C@H](NC(=O)CCCCCCCCCCCCCCCCCCC(=O)O)C(=O)O)C(=O)N[C@@H](CC(N)=O)C(=O)N[C@@H]([C@@H](C)O)C(=O)N[C@@H](C)C(=O)N[C@@H]([C@@H](C)O)C(=O)N1)[C@@H](C)O)C(=O)N1CCC[C@H]1C(=O)N[C@@H](CO)C(=O)N[C@@H](CO)C(=O)N[C@H](C(=O)N[C@@H](CC(N)=O)C(=O)N[C@H](C(=O)NCC(=O)N[C@@H](CO)C(=O)N[C@@H](CC(N)=O)C(=O)N[C@H](C(=O)N[C@@H](Cc1ccc(O)cc1)C(N)=O)[C@@H](C)O)C(C)C)[C@@H](C)O [Example 48]
